From the CheMixHub ionic liquid set

Test: xn = mol fraction of the nth substance listed

CCCCCCCC(=O)[O-].c1c[nH+]c[nH]1 + CCO
101.3 kPa
Settings	viscosity [mPa·s]
293.15 K, x2 = 0.1984	53.79
293.15 K, x2 = 0.301	40.4
293.15 K, x2 = 0.5999	14.5
298.15 K, x2 = 0.8989	2.949
303.15 K, x2 = 0.1043	45
303.15 K, x2 = 0.5999	12
303.15 K, x2 = 0.8989	2.686
313.15 K, x2 = 0	36.92
313.15 K, x2 = 0.301	21.5
313.15 K, x2 = 0.5999	9.9
313.15 K, x2 = 0.7006	6.9
318.15 K, x2 = 0.5999	9
318.15 K, x2 = 0.8989	2.125

CC[n+]1ccn(C)c1.COS(=O)(=O)[O-] + CCO
viscosity [mPa·s], 101 kPa
Settings	283.15 K	293.15 K	303.15 K	313.15 K	323.15 K
x1 = 0.0561	2.15	1.77	1.48	1.24	1.04
x1 = 0.112	2.99	2.44	2.02	1.7	1.44
x1 = 0.213	5.56	4.37	3.53	2.81	2.36
x1 = 0.3285	9.85	7.62	6.01	4.85	3.98
x1 = 0.356	11.14	8.61	6.78	5.44	4.44
x1 = 0.525	23.46	17.1	12.99	10.15	8.15
x1 = 0.632	38.01	26.49	19.73	14.91	11.58
x1 = 0.7294	55	36.84	26.04	19.5	15
x1 = 0.8202	76.5	49.25	33.81	24.48	18.59
x1 = 0.9108	106.9	66	43.92	30.93	22.87
x1 = 0.9556	124.7	75.7	49.57	34.48	25.22
x1 = 1	141	84.1	57.9	39.54	28.33

CC[n+]1ccn(CCOC)c1.O=S(=O)([O-])C(F)(F)F + CCO
101 kPa
Settings	viscosity [mPa·s]
288.15 K, x1 = 0.2996	7.66
293.15 K, x1 = 0.699	35.3
293.15 K, x1 = 0.797	47.3
293.15 K, x1 = 0.899	64.4
298.15 K, x1 = 0.1999	3.6
298.15 K, x1 = 0.797	38.9
303.15 K, x1 = 0.0996	1.934
303.15 K, x1 = 0.1999	3.231
303.15 K, x1 = 1	57.9
308.15 K, x1 = 0.603	14.85
308.15 K, x1 = 0.797	26.79
308.15 K, x1 = 0.899	37.34
313.15 K, x1 = 0.797	22.71
318.15 K, x1 = 0.797	19.43

CCCCn1cc[n+](C)c1.[Cl][Fe-]([Cl])([Cl])[Cl] + CCOC(C)=O
101 kPa
Settings	viscosity [mPa·s]
293.15 K, x1 = 0.6001	16.31
298.15 K, x1 = 0.7973	26.3
298.15 K, x1 = 0.9	34.2
303.15 K, x1 = 0.6001	12.31
303.15 K, x1 = 0.7973	22.35
308.15 K, x1 = 0.1999	1.86
308.15 K, x1 = 0.3999	5.26
308.15 K, x1 = 0.6001	10.84
308.15 K, x1 = 0.7973	19.21
308.15 K, x1 = 1	31.9
313.15 K, x1 = 0.1999	1.75
313.15 K, x1 = 0.7973	16.68
318.15 K, x1 = 0.3007	2.76
318.15 K, x1 = 0.3999	4.34
318.15 K, x1 = 0.9	18.34

CC[S+](CC)CCOCCOCCOCC[S+](CC)CC.N#C[N-]C#N.N#C[N-]C#N + CC[n+]1ccn(C)c1.N#C[N-]C#N + O=S(=O)([N-]S(=O)(=O)C(F)(F)F)C(F)(F)F.[Li+]
100 kPa, x1 = 0.2479, x2 = 0.6613
Settings	electrical conductivity [S/m]
298 K	0.454
303 K	0.548
313 K	0.811
323 K	1.09
333 K	1.4
343 K	1.78

NCC(O)CN + CC[n+]1ccn(C)c1.[Cl-]
101 kPa, x2 = 0.667
Settings	viscosity [mPa·s]
298.15 K	280
303.15 K	200.3
313.15 K	108.2
323.15 K	58.3
333.15 K	38.3

CC[n+]1ccn(C)c1.COS(=O)(=O)[O-] + CN1CCCC1=O
101 kPa
Settings	viscosity [mPa·s]
298.15 K, x2 = 0.8502	4.99
303.15 K, x2 = 0.3825	28
303.15 K, x2 = 0.5291	17.6
303.15 K, x2 = 0.9298	2.91
308.15 K, x1 = 0.0115	1.52
308.15 K, x2 = 0.6518	9.5
308.15 K, x2 = 0.718	6.8
313.15 K, x2 = 0.0861	38.1

NCCO + CN1CCCC1=O + CCCC[n+]1ccn(C)c1.O=S(=O)([N-]S(=O)(=O)C(F)(F)F)C(F)(F)F
viscosity [mPa·s], 101 kPa
Settings	293.15 K	298.15 K	303.15 K	308.15 K	313.15 K	318.15 K	323.15 K	328.15 K	333.15 K
x1 = 0.1608, x2 = 0.8154	3.357	3.042	2.776	2.553	2.364	2.204	2.068	1.95	1.848
x1 = 0.2089, x2 = 0.7256	4.749	4.206	3.761	3.388	3.089	2.818	2.599	2.41	2.252
x1 = 0.2436, x2 = 0.6371	6.416	5.617	4.959	4.413	3.958	3.575	3.254	2.982	2.752

CCCCCC[n+]1ccn(C)c1.O=S(=O)([N-]S(=O)(=O)C(F)(F)F)C(F)(F)F + CN(C)C=O
298.15 K, 100 kPa
Settings	electrical conductivity [S/m]
x1 = 0.06572	0.9
x1 = 0.09821	1.1
x1 = 0.1404	1.2
x1 = 0.1968	1.4
x1 = 0.275	1.2

CCCCCC[n+]1ccn(C)c1.O=S(=O)([N-]S(=O)(=O)C(F)(F)F)C(F)(F)F + CN(CCO)CCO
101 kPa
Settings	viscosity [mPa·s]
303.15 K, x2 = 0	58.3
303.15 K, x2 = 0.801	49.3
308.15 K, x2 = 0.0989	45.6
308.15 K, x2 = 0.3999	34
313.15 K, x2 = 0.3999	31.4
313.15 K, x2 = 0.6075	30
313.15 K, x2 = 0.899	36.2
318.15 K, x2 = 0.7049	25.3
323.15 K, x2 = 0.2977	24.1
323.15 K, x2 = 0.7049	22.9

CCCCCC[n+]1ccn(C)c1.O=S(=O)([N-]S(=O)(=O)C(F)(F)F)C(F)(F)F + CO
298.15 K, 100 kPa
Settings	electrical conductivity [S/m]
x1 = 0.02978	1.7
x1 = 0.04557	2.1
x1 = 0.06683	2.3
x1 = 0.09663	2.2
x1 = 0.1426	1.9

CCCCCCCC[P+](CC)(CC)CC.O=[N+]([O-])c1c[n-]cn1 + COCCOCCOCCOCCOC
viscosity [mPa·s], 100 kPa
Settings	x1 = 0.599	x1 = 0.699	x1 = 0.9	x1 = 1
278.15 K	125	210	–	1270
288.15 K	–	114	–	569
298.15 K	–	–	180	–

CC[n+]1ccn(C)c1.COS(=O)(=O)[O-] + CS(C)=O
viscosity [mPa·s], 100 kPa
Settings	298.15 K	303.15 K	308.15 K	313.15 K
x1 = 0.0164	4.16	4.01	3.89	3.67
x1 = 0.0398	7.35	6.81	6.27	5.93
x1 = 0.0602	9.97	9.2	8.55	8.08
x1 = 0.0941	14.18	12.83	12.06	11.28
x1 = 0.1236	17.62	15.85	14.5	13.71
x1 = 0.1519	20.91	18.59	16.92	16.1
x1 = 0.2143	27.4	24.2	21.94	20.73
x1 = 0.2927	34.95	30.43	27.28	25.55
x1 = 0.3737	41.96	36.24	32.09	29.71
x1 = 0.4429	47.4	40.66	35.66	32.71
x1 = 0.5298	53.6	45.69	39.54	35.84
x1 = 0.6072	58.8	49.5	42.55	38.23
x1 = 0.6927	64.3	53.7	45.77	40.24
x1 = 0.7486	67.7	56.3	47.7	41.57
x1 = 0.8263	72.7	60	50.3	43.32
x1 = 0.8944	77	63.2	52.7	44.81
x1 = 0.9396	80.1	65.5	54.3	45.96
x1 = 0.9755	82.5	67.4	55.7	46.87
x1 = 1	84.3	68.7	56.7	47.6
